Experimental findings from patent publication US8604048B2, “Pyridocarbazole type compounds and applications thereof” (Centre National de la Recherche Scientifique, priority 2009, dated 2013) are described below.

One assay concerns HeLa cells. The assay can be described thus: Cell growth test (MTT), HeLa. The assay is classed as cell-based. Conditions: Homo sapiens, MTT test after 48 h, read-out: IC50 (concentration necessary to inhibit 50% of cell growth). The method, then: (§1) The cell growth tests are carried out in transparent 96-well microplates (Greiner) after having seeded 100 μl/well of a cell solution having 2·10^5 cells/ml to 5·10^5 cells/ml (depending on the cell lines). After incubating for 24 h at 37° C. with 5% CO2, the culture medium is removed and replaced with solutions of the molecule to be tested at various concentrations. The cells are incubated with these molecules for an additional 48 h at 37° C. with 5% CO2. After elimination of the medium, the cells are washed with blank RPMI (Gibco, Invitrogen) then incubated with 3-(4,5-dimethylthiazol-2-yl)-2,5-diphenyltetrazolium bromide or MTT (0.5 mg/ml final concentration) for 4 h at 37° C. with 5% CO2. MTT (Sigma Aldrich) makes it possible to estimate the viability of the cells by measuring the activity of a mitochondrial enzyme. Indeed, in living cells, mitochondrial dehydrogenases are capable of cleaving the tetrazolium ring, thus leading to the formation of formazan crystals that are insoluble in an aqueous medium. These crystals are dissolved with the addition of a solubilizing solution (isopropanol, 10% Triton X100, 0.1 N HCl). After stirring, the absorbance is measured at 570 nm using the FLUOstar OPTIMA microplate reader. […]
(§2) The viability of the cells was evaluated using an MTT test after 48 h of exposure with various concentrations of molecules (from 100 μM to 0.001 μM). […]

Assay [1] concerns microtubules of HeLa cells. Briefly: Stability of microtubules at low temperature (4° C.). The assay is classed as cell-based, Human. Particulars: 2 h with compound then 30 minutes at 4° C. The method, then: FIG. 3 represents the effect of the Compound 1 of the invention on the stability of microtubules at low temperature. The HeLa cells are incubated with paclitaxel or without, with the Compound 1 of the invention, for 2 h, then exposed for 30 minutes at 4° C. The amount of tubulin in the cells treated with the Compound 1 of the invention is measured with a microplate reader, then reported as a percentage of the amount of tubulin measured in the wells containing the cells treated with paclitaxel (100%);
In the living cell, microtubules are dynamic structures, which oscillate between assembling and disassembling phases. Various types of tests may be carried out in order to assess the stabilizing effect of the molecules on the microtubule network. Thus, the binding of paclitaxel to the microtubules, or the binding of stabilizing proteins such as STOP proteins (Bosc et al., 2003) may protect the microtubule network from a depolymerization induced by an incubation of the cells at 4° C. Furthermore, molecules capable of slowing down the dynamics of the microtubules may be identified by analyzing the resistance of cell microtubules to a depolymerization induced by nocodazole. In the absence of a stabilizing compound, the microtubules depolymerize in the presence of nocodazole (FIG. 2). […]

The subject of another assay is MES-SA DX5 cells. The assay can be described thus: Cell growth test (MTT), MES-SA DX5. The format is cell-based. Particulars: Homo sapiens; MES-SA DX5 (multi-drug resistant, P-glycoprotein), MTT test after 48 h; read-out: IC50 (concentration necessary to inhibit 50% of cell growth). The method, then:
as §1, §2

The subject of assay [2] is microtubules of HeLa cells. Briefly: Stability of the microtubules in cells, qualitative double-blind evaluation using a microscope. The format is cell-based, Human. Conditions: general statement. The method, then: 6. a step of analysis of the effect of the compound to be tested on the dynamics of the microtubule network. For this, HeLa cells are incubated for 2 h with the compound to be tested, then optionally treated with 10 μM nocodazole for 30 minutes.
Cells grown for two days on glass coverslips, were incubated 3 minutes at 37° C. with or without OPT buffer (Pipes 80 mM, EGTA 1 mM, MgCl 1 mM, Triton X-100 0.5% and glycerol 10% pH 6.8), and then fixed in methanol previously maintained at −20° C. for 10 minutes. The cells are then washed with PBS/0.1% Tween® 20 and incubated for 15 minutes minimum at room temperature with the appropriate primary antibodies (cf. the antibodies from Table III) diluted in a solution of PBS/0.3% BSA/0.02% NaN3. The cells are then washed 3 times with PBS/0.1% Tween® 20. They are incubated for 15 minutes at room temperature with a solution of secondary antibodies (cf. the antibodies from Table IV) and of Hoechst at a final concentration of 1 μg/ml, diluted in PBS/0.3% BSA/0.02% NaN3. […]
HeLa cells are seeded in black-bottomed black 96-well microplates (Greiner 655086) by distributing 90 μl per well of a cell solution containing 40 000 cells/ml, and incubated at 37° C. with 5% CO2. […] The various fluorescence intensities are measured using the FLUOstar OPTIMA reader. […]

For the compound `Cc1c2cc[nH]c(=O)c2c(C)c2c1[nH]c1ccc(OC(=O)c3ccccc3)cc12` [Compound 1, 9-benzoyloxy-5,11-dimethyl-2H,6H-pyrido[4,3-b]carbazol-1-one], the IC50 was 1.21 µM with HeLa cells and 27.4 µM in the assay on MES-SA DX5 cells. For the same compound, the “Protection of microtubules from cold-induced depolymerization” value in assay [1] is on record as “not able to protect the microtubules”.

Consider `Cc1c2ccncc2c(C)c2c1[nH]c1ccccc12` [ellipticine], for which, in assay [2], the “Effect on the stabilization of cell microtubules” value is “does not have any effect”.
